Results published in patent US8802726B2, “Use of nitrooxyderivative of drug for the treatment of muscular dystrophies” (Nicox S.A., priority 2006, dated 2014).
Marks after values point to notes of the source that are not given here.

Tests used:
[1] = system: α-SG-null mice; experiment: In vivo functional test: resistance to fatigue (exhaustion) by treadmill; conditions: for Extent of the benefit (%) on exhaustion time, treated vs untreated mice: in the diet
Description: The effectiveness of naproxcinod, isosorbide dinitrate (ISD) alone and in combination with ibuprofen, molsidomine and prednisolone were evaluated using a test of functional recovery in a mouse model of muscular dystrophy (α-SG-null mice). The experiments to assess the functional recovery in α-SG-null mice were performed according to the following experimental protocol. All experiments and functional evaluations were performed by the same operator in the same laboratory.
α-SG-null mice were housed in a pathogen-free facility, treated in accordance with the European Community Guidelines and with the approval of the Institutional Ethical Committee. Mice were given the following treatments: 3 mg/kg of molsidomine, 30 mg/kg of naproxcinod, 30 mg/kg of ISD alone and in combination with 50 mg/kg of ibuprofen, or 2 mg/kg of prednisolone incorporated in the diet. Control groups received the same diet without any drugs. Standard diet and diets containing the drugs were prepared based on the daily food intake of 3 g. Mice were treated starting at 1 month of age.
Analyses were carried out using a six-lane motorized treadmill (Exeter 3/6 treadmill, Columbus Instruments, OH, USA) supplied with shocker plates. The initial trials were performed at low intensity and for a short duration of time to get mice accustomed to the exercise; the treadmill was then run without inclination at 5 m/min for 5 min, after which the speed was increased 1 m/min every 3 min until a speed of 10 m/min was reached. The test was stopped when the mouse remained on the shocker for 20 sec without attempting to reengage the treadmill.
The extent of benefit (%) is expressed as the percent of the improvement of treated mice (diet containing the drug) compared to untreated mice (standard diet) on the exhaustion time.

[2] = system: α-sarcoglycan (SG)-null C57BL/6 mice; experiment: Histology of diaphragm and tibialis anterior (inflammatory infiltrates, necrotic fibres), muscular dystrophy model; type: in vivo; conditions: for Overall effect on histological, functional and biochemical alterations (in words): α-SG-null mice, 20 to 80 days, summary of tables 1 and 2
Description: (§1) Muscular Dystrophy Model (α-Sarcoglycan-Deficient Mice)
(§2) • 2-acetyloxy benzoic acid 3-(nitrooxymethyl)benzoate of formula (Ib); • pravastatin 4-(nitrooxy)butyl ester which of formula (XXXVb); • 2-fluoro-alfa-methyl-4[1,1′-biphenyl]4-acetic acid 4-nitrooxybutyl ester of formula (IIIb); • prednisolone as reference corticosteroid drug. […] At indicated time-points (ranging from 20 to 80 days) skeletal muscle function was tested by the free wheel test. 24 hours later animals were sacrificed, tissue isolated and histological characteristics analysed. Infiltrates were assessed after staining with the Azan Mallory technique; Necrotic fibres were measured in hematoxilin-stained sections; creatin kinase was measured using a commercially available kit on blood samples obtained 24 hours prior to the wheel test. […] Free Wheel Running: Voluntary wheel running was used as the exercise paradigm to avoid any physiological changes that may occur due to the stress of forced treadmill running. Mice were housed singly for a 24 hour period in a polycarbonate running wheel equipped with a magnetic counter, the output of which was sent to a speedometer, allowing quantification of the number of revolutions per day. Creatine Kinase Activity Measurements: quantitative and kinetic determination of creatine kinase activity in serum of control and drug treated-animals was measured using creatine kinase reagent (Sigma), according to the manufacturer's instructions. Blood was collected from tail of 2-7 months-old mice and serum obtained after centrifugation at 13.000 rpm for 10 minutes was stored at −80° C. before measurements. Histology: Diaphragm and tibialis anterior of untreated and drug-treated mice were isolated and included in Killik frozen section medium, quickly frozen and cut into 8-μm thick sections with the muscle fibres oriented transversely using a cryostat. Sections were stained with either Hematoxylin & Eosin or Azan Mallory, to evaluate the number of inflammatory infiltrates and necrotic fibres ([…] for tissue).

[3] = system: α-sarcoglycan (SG)-null C57BL/6 mice; experiment: Creatine kinase activity measurements in serum, muscular dystrophy model; type: in vivo; conditions: daily in the diet, Ib 100, XXXVb 12, IIIb 30, prednisolone 3 mg/kg
Description: as §1, §2

[4] = system: α-sarcoglycan (SG)-null C57BL/6 mice; experiment: Free wheel running test (voluntary wheel running), muscular dystrophy model; type: in vivo; conditions: daily in the diet
Description: as §1, §2

[5] = 80 days of treatment, daily in the diet, Ib 100 mg/kg, XXXVb 12 mg/kg, IIIb 30 mg/kg, prednisolone 3 mg/kg
[6] = 80 days of treatment, daily in the diet, Ib 100 mg/kg, XXXVb 12 mg/kg, IIIb 30 mg/kg, prednisolone 3 mg/kg, Azan Mallory staining
[7] = 20 days of treatment, Ib 100, XXXVb 12, IIIb 30, prednisolone 3 mg/kg
[8] = 40 days of treatment, Ib 100, XXXVb 12 mg/kg
[9] = 60 days of treatment, Ib 100, XXXVb 12 mg/kg

Row | SMILES | Extent of the benefit (%) on exhaustion time, treated vs untreated mice ([1]; 8 months of treatment, molsidomine 3 mg/kg, ISD 30 mg/kg, ibuprofen 50 mg/kg) [%] | N° of necrotic Fibres/section [2, 5] | N° of inflammatory Infiltrates/section [2, 6] | Overall effect on histological, functional and biochemical alterations (in words) ([2]; daily in the diet) | CK plasma level ([3]; 20 days of treatment) | CK plasma level ([3]; 40 days of treatment) [U/ml] | CK plasma level ([3]; 60 days of treatment) [U/ml] | CK plasma level ([3]; 80 days of treatment) | Free wheel test [4, 7] [km/24 h] | Free wheel test [4, 8] [km/24 h] | Free wheel test [4, 9] [km/24 h] | Free wheel test ([4]; 80 days of treatment, XXXVb 12 mg/kg) [km/24 h] | Extent of the benefit (%) on exhaustion time, treated vs untreated mice ([1]; 6 months of treatment, prednisolone 2 mg/kg) [%] | Extent of the benefit (%) on exhaustion time, treated vs untreated mice ([1]; 12 months of treatment, prednisolone 2 mg/kg) [%] | Extent of the benefit (%) on exhaustion time, treated vs untreated mice ([1]; 4 months of treatment, naproxcinod 30 mg/kg, ISD 30 mg/kg, ibuprofen 50 mg/kg) [%] | Amelioration of muscle function (in words) ([1]; compared to molsidomine, ISD alone, ISD and ibuprofen, or prednisolone) | N° of inflammatory Infiltrates/section ([2]; mouse, in vivo) | N° of necrotic Fibres/section ([2]; mouse, in vivo)
1 | CCOC(=O)[N-]c1cn(N2CCOCC2)n[o+]1 [molsidomine] | 63 | – | – | – | – | – | – | – | – | – | – | – | – | – | – | – | – | –
2 | CC[C@H](C)C(=O)O[C@H]1C[C@H](O)C=C2C=C[C@H](C)[C@H](CCC(O)C[C@H](O)CC(=O)OCCCCO[N+](=O)[O-])[C@H]21 (relative stereo) [(XXXVb), [1S-[1α(βS*,δS*),2α,6α,8β-(R*),8aα]]-1,2,6,7,8,8a-hexahydro-β,δ,6-trihydroxy-2-methyl-8-(2-methyl-1-oxobutoxy)-1-naphthaleneheptanoic acid 4-(nitrooxy)butyl ester] | – | 35 ± 2.1 | 54.2 ± 8.05 | significantly effective in reducing the histological, functional and biochemical alterations | 440.6 ± 33**^ U/ml | 488.2 ± 96.5 | 627.4 ± 69.3 | 614.8 ± 37**^ U/ml | 0.55 ± 0.03 | 0.58 ± 0.01 | 0.54 ± 0.03 | 0.65 ± 0.05 | – | – | – | – | – | –
3 | C[C@]12C=CC(=O)C=C1CC[C@@H]1[C@@H]2[C@@H](O)C[C@@]2(C)[C@H]1CC[C@]2(O)C(=O)CO [Prednisolone, prednisolone, reference compound] | – | 197.1 ± 23 | 59.4 ± 7.00 | – | 440.6 ± 33**^ U/ml | 488.2 ± 96.5 | 711.3 ± 69.3 | 717.6 ± 31.1 U/ml | 0.55 ± 0.1 | – | – | – | 117 | 100 | – | – | – | –
4 | CC(=O)Oc1ccccc1C(=O)Oc1cccc(CO[N+](=O)[O-])c1 [(Ib), 2-(acetyloxy)benzoic acid 3-(nitrooxymethyl)phenyl ester] | – | 124.1 ± 33 | 91.3 ± 34.5 | significantly effective in reducing the histological, functional and biochemical alterations | 665.6 ± 51 U/ml | 944.0 ± 95.5 | 444.2 ± 20.2 | 494.6 ± 56.1 U/ml | 0.65 ± 0.07 | 0.42 ± 0.08 | 0.31 ± 0.1 | – | – | – | – | – | – | –
5 | COc1ccc2cc([C@H](C)C(=O)OCCCCO[N+](=O)[O-])ccc2c1 [naproxcinod] | – | – | – | – | – | – | – | – | – | – | – | – | – | – | 150 | superior amelioration of the muscle function | – | –
6 | CC(C(=O)OCCCCO[N+](=O)[O-])c1ccc(-c2ccccc2)c(F)c1 (centres unmarked) [(IIIb), 2-fluoro-alfa-methyl-4[1,1′-biphenyl]4-acetic acid 4-nitrooxybutyl ester] | – | – | – | significantly effective in reducing the histological, functional and biochemical alterations | 662.6 ± 41 U/ml | 824.0 ± 90.5 | 648.2 ± 25.2 | 482.3 ± 51.2 U/ml | 0.95 ± 0.1 | – | – | – | – | – | – | – | 84.2 ± 22.5 | 48.4 ± 2.3
